How the values were obtained:
[1] = Plasma pharmacokinetics after oral Posiphen in humans (LC-MS/MS); format: in vivo, human; conditions: for Tmax: Posiphen PO 80 mg/day (1.1 mg/kg), n = 4
Protocol: (§1) This paper describes data from multiple studies.
Samples were frozen and then stored at −80 °C.
(§2) The detection limit was 0.025 ng/mL.

[2] = Posiphen pharmacokinetics compared across species (mouse, rat, dog, human); format: in vivo
Protocol: as §1, §2

[3] = human; side effects nausea and vomiting; cited from earlier work
[4] = Plasma pharmacokinetics after oral Posiphen in Beagle dogs (LC-MS/MS); set-up: species or system dog; conditions: for Mean plasma concentration: Beagle dogs, Posiphen 20 mg/kg; for Tmax: dog plasma, Posiphen PO 20 mg/kg, n = 12
Protocol: (§3) In rats and dogs, blood samples were centrifuged, and the resultant plasma was separated, and 200 µL (rat) or 400 µL (dog) of plasma was transferred to uniquely labeled pre-chilled polypropylene tubes containing 5 µL (rat) or 10 µL (dog) Dichlorvos spiking solution (nominal concentration of 0.82 mg/mL in MeOH/Water, 20/80, v/v).
as §2

in vivo = conditions: CD-1, mouse; for T1/2 / Tmax / Tmax (time of Cmax) / Cmax: po; for Cmax: 65 mg/kg
Protocol: (§4) The animal PKs were taken from multiple GLP toxicology studies, biomarker studies, and efficacy studies. […] Sample size (n) represents the number of animals at each time point of sample collection. […] The dose volume was determined according to animals’ weight collected on the dosing day.
(§5) In mice, blood samples were collected via the saphenous vein or other suitable blood collection site into a microcentrifuge tube containing the anti-coagulant K2-EDTA on wet ice and processed for plasma. For samples collected within the first hour of dosing, ±1 min is acceptable, while for all other timepoints, samples were taken within 5% of the scheduled time and are not considered as protocol deviations. Plasma samples were centrifuged (3200× g for 10 min at 4 °C) within an hour of collection. CSF samples were collected with 3 μL volume per time point, frozen on dry ice, and stored at −60 °C for further analysis. For brain collection in mice, animals were euthanized using CO2 inhalation. Whole brain was collected, washed in cold saline, dried, and homogenized immediately […]. Homogenizing buffer MeOH/15 mM PBS (1:2, v:v) was used at a ratio of 1:9 (1 g of tissue with 9 mL of buffer; the dilution ratio is 10).
(§6) In humans, the bioanalytical method was performed in accordance with current FDA, Industry Guidelines, and OECD Principles. […] The sample analysis was conducted in accordance with current GCP and GLP principles, and the results were presented for pharmacokinetic profiling (Absorption Systems, Exton, PA, USA). Calibration ranges for each analyte ranged from 1000 ng/mL to 1 ng/mL (or ng/g for brain) in plasma, brain, and CSF matrices. The detection limit was 0.025 ng/mL. The following PK parameters were collected for the purpose of this manuscript: maximum concentration (Cmax), time to maximum drug concentration (Tmax), half-life (T1/2), and the Area Under the Curve (AUC).

clinical = conditions: human, in vivo
Protocol: This paper describes data from multiple studies. The healthy volunteers’ data come from the single ascending and multiple ascending dose study, whereas Alzheimer’s and Parkinson’s patients are represented by the MCI NCT01072812 study, ADCS NCT02925650 study, and AD/PD NCT04524351 study. The evaluations are based on a sample size of n = 4 for each time point.
In humans, plasma and lumbar CSF samples were collected via an indwelling catheter over 12 h (at 0, 1, 1.5, 2, 3, 4, 6, 8, and 12 h) initiated at the same time of day, 1 day prior to the start of dosing, to obtain time-dependent baseline control data, and then at the exact same times immediately after the last dose was administered. Samples were frozen and then stored at −80 °C.
as §6

[5] = Plasma pharmacokinetics after oral Posiphen in Sprague Dawley rats (LC-MS/MS); format: in vivo, rat
Protocol: as §3, §2

[6] = Plasma pharmacokinetics after oral Posiphen in CD-1 mice (LC-MS/MS); conditions: for Mean plasma concentration: CD-1 mice, Posiphen 65 mg/kg
Protocol: as §4, §5, §6
Blood plasma samples were collected at various time points within the initial 8 h following administration (6 h for humans). Plasma concentrations (ng/mL) were measured over the 8 h observation window to characterize the maximum concentration (Cmax), the time to peak drug concentration (Tmax), the half-life (T1/2), and the Area Under the Curve (AUC).

[7] = both sexes, Beagle, dog, in vivo, po, 20 mg/kg
[8] = both sexes, Sprague Dawley, rat, in vivo, 40 mg/kg
[9] = both sexes, Sprague Dawley, rat, in vivo, po, 40 mg/kg
[10] = both, CD-1, mouse, in vivo, po, 65 mg/kg

Q: Which “Primary compound in plasma” value ([1]; human plasma) does the source give for CN1CC[C@]2(C)c3cc(OC(=O)Nc4ccccc4)ccc3N(C)C12.O=C(O)C(O)C(O)C(=O)O (stereo partly drawn) [Posiphen, (3aR)-1,3a, 8-trimethyl-1,2,3,3a, 8,8a-hexahydropyrrolo (2,3-b) indol-5-yl phenylcarbamate tartrate] here?
A: Its value is “primary compound”.

Q: What about the Tmax ([1]; human plasma) of the same compound?
A: Its Tmax is 1.45 h.

Q: What about the Cmax ([1]; human, in vivo, po) of the same compound?
A: The Cmax was 117 ng/mL.

Q: And the Cmax ([1]; human, in vivo, po, 1.1 mg/kg)?
A: Its Cmax is 120 ng/mL.

Q: And the Tmax ([1]; human, in vivo, po, 1.1 mg/kg, human plasma, read-out: Tmax)?
A: Its Tmax is 1 to 2 h.

Q: What about the AUC(0-t) ([1]; human, in vivo, po, 1.1 mg/kg, read-out: AUC (0–8 h)) of the same compound?
A: Its AUC(0-t) is 310 ng·h/mL.

Q: And the AUC(0-t) ([1]; human, in vivo, po, read-out: AUC (0-t))?
A: The AUC(0-t) was 565 ng·h/mL.

Q: And the half-life ([2]; CSF or brain, oral)?
A: The half-life was over 12 h.

Q: What about the Time to peak ([2]; all analyzed species: mouse, rat, dog, human) of the same compound?
A: Its Time to peak is at most 2 h.

Q: What about the Maximum tolerated dose [3] of the same compound?
A: Its Maximum tolerated dose is 160 mg.

Q: And the Mean plasma concentration ([4]; 0.25 h)?
A: The Mean plasma concentration was 2.34 ng/mL.

Q: What about the Mean plasma concentration ([4]; 0.5 h) of the same compound?
A: The Mean plasma concentration was 241 ng/mL.

Q: What about the Mean plasma concentration ([4]; 1 h) of the same compound?
A: Its Mean plasma concentration is 326 ng/mL.

Q: And the Mean plasma concentration ([4]; 2 h)?
A: Its Mean plasma concentration is 203 ng/mL.

Q: What about the Mean plasma concentration ([4]; 4 h) of the same compound?
A: The Mean plasma concentration was 32.3 ng/mL.

Q: And the Mean plasma concentration ([4]; 8 h)?
A: The Mean plasma concentration was 4.4 ng/mL.

Q: What about the Mean plasma concentration ([4]; 12 h) of the same compound?
A: Its Mean plasma concentration is 1.27 ng/mL.

Q: What about the Cmax [4, 7] of the same compound?
A: The Cmax was 402 ng/mL.

Q: What about the half-life [4, 7] of the same compound?
A: The half-life was 1.96 h.

Q: What about the Tmax ([4]; both sexes, Beagle, dog, in vivo, po, 20 mg/kg, read-out: Tmax) of the same compound?
A: The Tmax was 1 to 2 h.

Q: And the AUC(0-t) ([4]; both sexes, Beagle, dog, in vivo, po, 20 mg/kg, read-out: AUC (0–8 h))?
A: Its AUC(0-t) is 756 ng·h/mL.

Q: And the Tmax ([4]; 20 mg/kg)?
A: Its Tmax is 1.18 h.

Q: What about the Kp (in vivo) of the same compound?
A: Its Kp is 5.04.

Q: What about the Kp (in vivo; in vivo) of the same compound?
A: The Kp was 0.17.

Q: And the T1/2 (in vivo; in vivo)?
A: Its T1/2 is 0.5 h.

Q: And the Tmax (in vivo; in vivo)?
A: The Tmax was 2.32 h.

Q: What about the “Tmax (time of Cmax)” value (in vivo; in vivo) of the same compound?
A: The value was 0.5 h.

Q: What about the Cmax (in vivo; in vivo, Cmax) of the same compound?
A: Its Cmax is 163 ng/mL.

Q: What about the T1/2 (in vivo) of the same compound?
A: The T1/2 was 0.5 h.

Q: What about the Tmax (in vivo) of the same compound?
A: Its Tmax is 0.74 h.

Q: And the “Tmax (time of Cmax)” value (in vivo)?
A: The value was 0.5 h.

Q: What about the Cmax (in vivo) of the same compound?
A: Its Cmax is 4740 ng/mL.

Q: And the Kp (clinical)?
A: The Kp was 0.02.

Q: What about the half-life (clinical) of the same compound?
A: Its half-life is over 12 h.

Q: And the AUC(0-t) (clinical; po)?
A: Its AUC(0-t) is 20.7 ng·h/mL.

Q: And the Cmax (clinical; po)?
A: Its Cmax is 2.23 ng/mL.

Q: And the T1/2 (clinical; po)?
A: Its T1/2 is 3 h.

Q: What about the Tmax (clinical; po) of the same compound?
A: Its Tmax is 17.26 h.

Q: What about the “Tmax (time of Cmax)” value (clinical; po) of the same compound?
A: The value was 3 h.

Q: What about the concentration at 0.25 h [5, 8] of the same compound?
A: The concentration at 0.25 h was 1090 ng/mL.

Q: And the concentration at 1 h [5, 8]?
A: Its concentration at 1 h is 771 ng/mL.

Q: And the concentration at 2 h [5, 8]?
A: The concentration at 2 h was 381 ng/mL.

Q: And the concentration at 4 h [5, 8]?
A: The concentration at 4 h was 243 ng/mL.

Q: And the concentration at 8 h [5, 8]?
A: The concentration at 8 h was 234 ng/mL.

Q: And the Cmax [5, 9]?
A: Its Cmax is 1180 ng/mL.

Q: What about the half-life [5, 9] of the same compound?
A: Its half-life is 1.03 h.

Q: What about the Tmax ([5]; both sexes, Sprague Dawley, rat, in vivo, po, 40 mg/kg, rat plasma, Posiphen PO 40 mg/kg, n = 6) of the same compound?
A: The Tmax was under 1 h.

Q: What about the AUC(0-t) ([5]; both sexes, Sprague Dawley, rat, in vivo, po, 40 mg/kg, read-out: AUC (0–8 h)) of the same compound?
A: The AUC(0-t) was 1140 ng·h/mL.

Q: And the “Primary compound in plasma” value ([5]; rat plasma)?
A: Its value is “primary compound”.

Q: What about the Mean plasma concentration ([6]; 0.25 h) of the same compound?
A: Its Mean plasma concentration is 937 ng/mL.

Q: What about the Mean plasma concentration ([6]; 0.5 h) of the same compound?
A: The Mean plasma concentration was 939 ng/mL.

Q: And the Mean plasma concentration ([6]; 1 h)?
A: Its Mean plasma concentration is 610 ng/mL.

Q: And the Mean plasma concentration ([6]; 2 h)?
A: The Mean plasma concentration was 571 ng/mL.

Q: And the Mean plasma concentration ([6]; 4 h)?
A: The Mean plasma concentration was 19.5 ng/mL.

Q: What about the “AUC(0-t)” value ([6]; Table 2, mouse plasma, oral Posiphen) of the same compound?
A: The value was 1707 ng·h/mL.

Q: And the AUC(0-t) [6, 10]?
A: The AUC(0-t) was 1710 ng·h/mL.

Q: And the Cmax [6, 10]?
A: The Cmax was 939 ng/mL.

Q: What about the half-life ([6]; both, CD-1, mouse, in vivo, po, 65 mg/kg, T1/2, mouse plasma, Posiphen PO 65 mg/kg, n = 7) of the same compound?
A: Its half-life is 0.56 h.

Q: What about the Tmax ([6]; both, CD-1, mouse, in vivo, po, 65 mg/kg, Tmax, mouse plasma, Posiphen PO 65 mg/kg, n = 7) of the same compound?
A: The Tmax was under 1 h.

Q: And the T1/2 ([6]; mouse plasma, Posiphen PO 65 mg/kg, n = 7, 65 mg/kg)?
A: The T1/2 was 0.562 h.
